# Assay results as given in PMC4627230, “Identification of TAX2 peptide as a new unpredicted anti-cancer agent” (Oncotarget, 2015).
# Columns and labels:
# [1] = system: CD36-containing complex / activated VEGFR2; assay: CD36 co-immunoprecipitation of activated VEGFR2; type: cell-based, human; conditions: HUVECs, 100 μM for 12 h, then 30 ng/mL VEGF 5 min
# Method: Figure 3 Anti-angiogenic properties of TAX2 are mediated by TSP-1 binding to CD36 A. Expression of CD36 in HUVECs was assessed by immunoblotting (left panel) and immunofluorescence staining (right panel, red). Nuclei were counterstained with DAPI (blue). B. HUVECs were incubated with 100 μM cyclic TAX2 or in control conditions for 24 h. Then, CD36-containing complexes were co-immunoprecipitated from whole cell extracts (non-specific IgGs were used as a negative control for immunoprecipitation). Immunocomplexes were submitted to SDS-PAGE and immunoblotted (IB) by using specific antibodies for TSP-1 and CD36. The presence of TSP-1 in immunocomplexes was quantified by densitometric analysis relative to immunoprecipitated CD36. C. VEGFR2 phosphorylation induced by VEGF in the presence of TAX2. After overnight serum starvation, HUVECs were pre-treated with 100 μM TAX2 or control for 12 h, then incubated with 30 ng/mL VEGF for 5 min. […] Data are expressed as the mean ± SE (n = 3; *p < 0.05, ANOVA). […] Quantification of total tube-like network length was realized using ImageJ software E. Branching points F. and nodal structures G. were numbered using the S.CORE web-based system. Data are expressed as the mean ± SE (n = 3; *p < 0.05, ANOVA). […]
# TSP-1 binding to VEGF = assay: Co-immunoprecipitation TSP-1 with VEGF; type: cell-based, human; conditions: HUVECs, 100 μM; conditioned media
# Method: Protein lysates prepared in ice-cold lysis buffer or conditioned media were subjected to immunoprecipitation assay using the Pierce Co-IP kit (Thermo Fisher Scientific) according to the manufacturer's protocol. 10 μg of antibody (anti CD47, anti-CD36, anti-FGF2, anti-VEGF, anti-β1 integrin and anti-LRP1 heavy chain) or non-specific IgGs were incubated with the delivered resin and covalently coupled. The antibody-coupled resin was incubated with whole HUVEC protein lysate overnight at 4°C under gentle agitation (no cross-linker was used to stabilize protein complexes before HUVEC lysis). Then the resin was washed and the protein complexes bound to the antibody were eluted. Immunoprecipitated protein complexes were solubilized under denaturing and reducing conditions, heated to 100°C for 5 min and analyzed by immunoblotting as described above. […]
# receptors. HUVECs were treated with TAX2 (100 μM) or scrambled peptide (Ctrl, 100 μM). FGF-2 and VEGF were immunoprecipitated from conditioned media using anti-FGF-2 (clone C-18) and anti-VEGF (clone C-1), respectively. β1 integrin and LRP-1 were immunoprecipitated from total protein lysates using anti-β1 integrin (clone BV7) and anti-LRP-1 heavy chain (clone 8G1), respectively. […] Histogram represents the quantification of relative ligand-bound TSP-1 under TAX2 treatment as compared to control. […]
sequence,measurement,setting,value
"CEVSQLLKGDAC (disulfide) [TAX2, CD47-derived cyclic disulfide dodecapeptide …]",association of activated VEGFR2 to a CD36-containing complex,[1],association of activated VEGFR2 to a CD36-containing complex
same,TSP-1 binding to VEGF,TSP-1 binding to VEGF,does not affect
